For one compound, Kd results are on record in patent publication US11938121B2, “Treatment of infections and biofilm formation using a cellulose synthase inhibitor” (Purdue Research Foundation, priority 2020, dated 2024).

Assay [1] deals with T1, GFP-CESA6c^P595S: GFP-tagged central cytoplasmic domain of AtCESA6 (cellulose synthase, CESA6) carrying missense mutation P595S, with a His-SUMO tag (Arabidopsis thaliana, UniProt Q94JQ6, P595S).
T1 construct: We purified AtCESA6 central cytoplasmic domain carrying missense mutation P595S (CESA6c^P595S); His-SUMO; made in house; host or cells: E. coli
Nature of the assay: Microscale thermophoresis (MST) binding to purified GFP-tagged CESA6c^P595S (missense mutant). The source says: FIGS. 3A-3Q. […] FIG. 3A to FIG. 3G. […] FIG. 3A. Representative 5-day-old dark-grown Arabidopsis Col-0 seedlings grown on growth medium supplemented with different concentrations of ES20 or ES20-1. Scale bar: 1 cm. FIG. 3B. Quantification of hypocotyl length of 5-day-old dark-grown Arabidopsis Col-0 seedlings described in FIG. 3A. Data represent mean±SD (n=12 seedlings). FIG. 3C. Quantification of crystalline cellulose content in the hypocotyl cell walls of 7-day-old dark-grown Col-0 seedlings grown on growth medium supplemented with DMSO (0.1%), 1 μM ES20, or 1 μM ES20-1. Data represent mean±SD (n=3 biological replicates). FIG. 3D and FIG. 3E. […] FIG. 3D. Representative image of 6-day-old rice seedlings grown in sterile water supplemented with DMSO (0.1%), 20 μM ES20, or 20 μM ES20-1. Scale bar: 1 cm. FIG. 3E. Quantification of root length of rice seedlings as described in FIG. 3D. Data represent mean±SD (n=10 seedlings). FIG. 3F and FIG. 3G. […] FIG. 3F. […] Quantification of root length of maize seedlings as described in FIG. 3F. […] Quantitative analysis of the band intensity of YFP-AtCESA6 and SEC12 in ES20-1-treated samples divided by that of DMSO-treated samples in the DARTS assay described in FIG. 3H. […] Statistically significant differences in FIG. 3B were determined using one-way ANOVA followed by Tukey's multiple comparisons test. […]

Assay [2] deals with T2, GFP-CESA6c: GFP-tagged central cytosolic domain of AtCESA6 (cellulose synthase, CESA6) with a His-SUMO tag (Arabidopsis thaliana, UniProt Q94JQ6).
T2 construct: His-SUMO; made in house; host or cells: E. coli
T2 sequence (Q94JQ6 322-868 limits assumed): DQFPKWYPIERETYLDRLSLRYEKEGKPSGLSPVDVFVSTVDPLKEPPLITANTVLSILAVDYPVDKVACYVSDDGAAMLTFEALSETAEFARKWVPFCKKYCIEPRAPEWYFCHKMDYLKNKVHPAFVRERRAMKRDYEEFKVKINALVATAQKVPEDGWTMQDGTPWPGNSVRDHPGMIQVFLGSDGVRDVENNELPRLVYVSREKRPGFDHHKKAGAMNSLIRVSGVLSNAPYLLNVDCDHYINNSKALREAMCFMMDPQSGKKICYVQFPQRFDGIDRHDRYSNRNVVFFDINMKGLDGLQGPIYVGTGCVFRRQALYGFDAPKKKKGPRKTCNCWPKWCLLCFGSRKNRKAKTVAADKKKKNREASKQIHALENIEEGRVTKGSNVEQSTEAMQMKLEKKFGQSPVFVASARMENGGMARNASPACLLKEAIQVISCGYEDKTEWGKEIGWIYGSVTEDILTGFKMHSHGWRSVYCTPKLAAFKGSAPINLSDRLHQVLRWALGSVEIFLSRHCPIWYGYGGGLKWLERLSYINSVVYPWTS
Nature of the assay: Microscale thermophoresis (MST) binding to purified GFP-tagged CESA6c (wild-type). Conditions: FIGS. 3K-3M, 100 nM GFP-CESA6c purified from E. coli, pH 7.5, 10 mM MgCl2, 0.05% Tween 20, 5% DMSO, triplicate, read-out: Kd, thermophoresis binding curve, GFP-CESA6c. The source says:
FIGS. 3A-3Q. […] FIG. 3A to FIG. 3G. […] FIG. 3A. Representative 5-day-old dark-grown Arabidopsis Col-0 seedlings grown on growth medium supplemented with different concentrations of ES20 or ES20-1. Scale bar: 1 cm. FIG. 3B. Quantification of hypocotyl length of 5-day-old dark-grown Arabidopsis Col-0 seedlings described in FIG. 3A. Data represent mean±SD (n=12 seedlings). FIG. 3C. Quantification of crystalline cellulose content in the hypocotyl cell walls of 7-day-old dark-grown Col-0 seedlings grown on growth medium supplemented with DMSO (0.1%), 1 μM ES20, or 1 μM ES20-1. Data represent mean±SD (n=3 biological replicates). FIG. 3D and FIG. 3E. […] FIG. 3D. Representative image of 6-day-old rice seedlings grown in sterile water supplemented with DMSO (0.1%), 20 μM ES20, or 20 μM ES20-1. Scale bar: 1 cm. FIG. 3E. Quantification of root length of rice seedlings as described in FIG. 3D. Data represent mean±SD (n=10 seedlings). FIG. 3F and FIG. 3G. […] FIG. 3F. Representative image of 6-day-old maize seedlings grown in sterile water supplemented with DMSO (0.1%), 20 μM ES20, or 20 μM ES20-1. Scale bar: 1 cm. FIG. 3G. Quantification of root length of maize seedlings as described in FIG. 3F. Data represent mean±SD (n=12 seedlings). […] FIG. 3H. Representative immunoblot from a DARTS assay of ES20-1 and YFP-AtCESA6. FIG. 3I. Quantitative analysis of the band intensity of YFP-AtCESA6 and SEC12 in ES20-1-treated samples divided by that of DMSO-treated samples in the DARTS assay described in FIG. 3H. Data represent mean±SD (n=6 biological replicates). FIGS. 3J-3N. […] FIG. 3J. Coomassie blue staining of purified GFP-tagged CESA6c with a His-SUMO tag (lane 2). FIGS. 3K, 3L, 3M, 3N. […] FIG. 3O. Coomassie blue staining of purified GFP-tagged CESA6c^P595S with a His-SUMO tag (lane 2). FIG. 3P and FIG. 3Q. […] Statistically significant differences in FIG. 3B were determined using one-way ANOVA followed by Tukey's multiple comparisons test. Lower-case letters represent ANOVA results for plants grown on medium with 0.1% DMSO, different concentrations of ES20 or ES20-1. […]

The structures appear in SMILES notation.

As a reminder, the Kd is the concentration at which binding is half-saturated. With `Cc1ccccc1C(=O)NNC(=S)NC(=O)c1ccccc1` [ES20-1], the Kd was 9.5 ± 6.3 µM in assay [1] and 4.4 ± 2.5 µM in assay [2].
